Results from ChEMBL document CHEMBL3885881, “DrugMatrix”.

Organism: Rattus norvegicus
Experiment: DrugMatrix - Regimen: Daily Repeat
Type: toxicity, organism-based, Sprague-Dawley
Design: regimen Daily Repeat, gender Male, age 6-8 weeks
Conditions: in vivo, ip, 0 mg/kg, route intraperitoneal, dose level Control, vehicle 100 % SALINE; for ABSOLUTE BASOPHIL / ABSOLUTE EOSINOPHIL / ABSOLUTE LYMPHOCYTE / ABSOLUTE MONOCYTE / ABSOLUTE SEGMENTED NEUTROPHIL / BASOPHIL / EOSINOPHIL / ERYTHROCYTE COUNT / HEMATOCRIT / HEMOGLOBIN / LEUKOCYTE COUNT / LYMPHOCYTE / MEAN CORPUSCULAR HEMOGLOBIN / MEAN CORPUSCULAR HEMOGLOBIN CONCENTRATION / MEAN CORPUSCULAR VOLUME / MONOCYTE / NEUTROPHIL / PLATELET COUNT: tissue Blood
[1] = 120 h, tissue Plasma, time 5 day
[2] = […], tissue Plasma, time 14 day
[3] = […], tissue Plasma, time 28 day

CARBOPLATIN was tested, and the ABSOLUTE BASOPHIL (120 h, time 5 day) was 32 cells/µL, the ABSOLUTE EOSINOPHIL (120 h, time 5 day) was 110 cells/µL and the ABSOLUTE LYMPHOCYTE (120 h, time 5 day) was 6630 cells/µL. It also gave an ABSOLUTE MONOCYTE (120 h, time 5 day) of 140 cells/µL, an ABSOLUTE SEGMENTED NEUTROPHIL (120 h, time 5 day) of 1170 cells/µL and a BASOPHIL (120 h, time 5 day) of 0.38%. The EOSINOPHIL (120 h, time 5 day) was 1.28%, the “ERYTHROCYTE COUNT” value (120 h, time 5 day) was 7.45 x10E6/uL and the HEMATOCRIT (120 h, time 5 day) was 45.74%. For the same sequence, the HEMOGLOBIN (120 h, time 5 day) was 14.72 G/DL, the “LEUKOCYTE COUNT” value (120 h, time 5 day) was 8.11 x10E3/uL and the LYMPHOCYTE (120 h, time 5 day) was 81.3%. For the same sequence, the “MEAN CORPUSCULAR HEMOGLOBIN” value (120 h, time 5 day) was 19.76 pg, the “MEAN CORPUSCULAR HEMOGLOBIN CONCENTRATION” value (120 h, time 5 day) was 32.16 G/DL and the “MEAN CORPUSCULAR VOLUME” value (120 h, time 5 day) was 61.38 fL. The MONOCYTE (120 h, time 5 day) was 1.76%, the NEUTROPHIL (120 h, time 5 day) was 14.9% and the “PLATELET COUNT” value (120 h, time 5 day) was 1322.4 x10E3/uL. For the same sequence, the “ALANINE AMINOTRANSFERASE” value [1] was 25.8 u/L, the ALBUMIN [1] was 3.64 G/DL and the “ASPARTATE AMINOTRANSFERASE” value [1] was 81.4 u/L. For the same sequence, the “BLOOD UREA NITROGEN” value [1] was 14.4 mg/dL, the CHOLESTEROL [1] was 69.2 mg/dL and the “CREATINE PHOSPHOKINASE” value [1] was 303.2 u/L. For the same sequence, the CREATININE [1] was 0.56 mg/dL, the GLUCOSE [1] was 125.4 mg/dL and the “LACTATE DEHYDROGENASE” value [1] was 105.4 u/L. It also gave an LIPASE [1] of 22.4 u/L, a POTASSIUM [1] of 5.52 MEQ/L and an SODIUM [1] of 147 MEQ/L. The “TOTAL BILIRUBIN” value [1] was 0.2 mg/dL, the “TOTAL PROTEIN” value [1] was 6.1 G/DL and the “URIC ACID” value [1] was 1.06 mg/dL. For the same sequence, the ABSOLUTE BASOPHIL ([…], time 14 day) was 130 cells/µL, the ABSOLUTE EOSINOPHIL ([…], time 14 day) was 140 cells/µL and the ABSOLUTE LYMPHOCYTE ([…], time 14 day) was 13500 cells/µL. It also gave an ABSOLUTE MONOCYTE ([…], time 14 day) of 400 cells/µL, an ABSOLUTE SEGMENTED NEUTROPHIL ([…], time 14 day) of 2330 cells/µL and a BASOPHIL ([…], time 14 day) of 0.72%. The EOSINOPHIL ([…], time 14 day) was 0.86%, the “ERYTHROCYTE COUNT” value ([…], time 14 day) was 7.74 x10E6/uL and the HEMATOCRIT ([…], time 14 day) was 45.98%. For the same sequence, the “LEUKOCYTE COUNT” value ([…], time 14 day) was 16.61 x10E3/uL, the LYMPHOCYTE ([…], time 14 day) was 81.34% and the “MEAN CORPUSCULAR HEMOGLOBIN” value ([…], time 14 day) was 18 pg. The “MEAN CORPUSCULAR HEMOGLOBIN CONCENTRATION” value ([…], time 14 day) was 30.22 G/DL, the “MEAN CORPUSCULAR VOLUME” value ([…], time 14 day) was 59.4 fL and the MONOCYTE ([…], time 14 day) was 2.46%. The NEUTROPHIL ([…], time 14 day) was 14.14%, the “PLATELET COUNT” value ([…], time 14 day) was 1445.5 x10E3/uL and the ABSOLUTE BASOPHIL ([…], time 28 day) was 91 cells/µL. The ABSOLUTE EOSINOPHIL ([…], time 28 day) was 110 cells/µL, the ABSOLUTE LYMPHOCYTE ([…], time 28 day) was 9910 cells/µL and the ABSOLUTE MONOCYTE ([…], time 28 day) was 210 cells/µL. The ABSOLUTE SEGMENTED NEUTROPHIL ([…], time 28 day) was 1560 cells/µL, the BASOPHIL ([…], time 28 day) was 0.77% and the EOSINOPHIL ([…], time 28 day) was 0.92%. For the same sequence, the “ERYTHROCYTE COUNT” value ([…], time 28 day) was 8.21 x10E6/uL, the HEMATOCRIT ([…], time 28 day) was 47.53% and the HEMOGLOBIN ([…], time 28 day) was 15.65 G/DL. The “LEUKOCYTE COUNT” value ([…], time 28 day) was 11.91 x10E3/uL, the LYMPHOCYTE ([…], time 28 day) was 83.34% and the “MEAN CORPUSCULAR HEMOGLOBIN” value ([…], time 28 day) was 19.07 pg. The “MEAN CORPUSCULAR HEMOGLOBIN CONCENTRATION” value ([…], time 28 day) was 32.93 G/DL, the “MEAN CORPUSCULAR VOLUME” value ([…], time 28 day) was 57.9 fL and the MONOCYTE ([…], time 28 day) was 1.68%. The NEUTROPHIL ([…], time 28 day) was 12.97%, the “PLATELET COUNT” value ([…], time 28 day) was 1323.8 x10E3/uL and the “ALANINE AMINOTRANSFERASE” value [2] was 31.6 u/L. For the same sequence, the ALBUMIN [2] was 3.66 G/DL, the “ALKALINE PHOSPHATASE” value [2] was 228.6 u/L and the “ASPARTATE AMINOTRANSFERASE” value [2] was 79.6 u/L. The “BLOOD UREA NITROGEN” value [2] was 11.2 mg/dL, the CHLORIDE [2] was 107 MEQ/L and the CHOLESTEROL [2] was 57 mg/dL. The CREATININE [2] was 0.5 mg/dL, the GLUCOSE [2] was 124.4 mg/dL and the “LACTATE DEHYDROGENASE” value [2] was 106.4 u/L. The LIPASE [2] was 24.4 u/L, the PHOSPHORUS [2] was 10.52 mg/dL and the POTASSIUM [2] was 6.34 MEQ/L. The SODIUM [2] was 149.2 MEQ/L, the “TOTAL BILIRUBIN” value [2] was 0.2 mg/dL and the “TOTAL PROTEIN” value [2] was 6.48 G/DL. The “URIC ACID” value [2] was 0.94 mg/dL, the “ALANINE AMINOTRANSFERASE” value [3] was 30 u/L and the ALBUMIN [3] was 3.71 G/DL. For the same sequence, the “ALKALINE PHOSPHATASE” value [3] was 186.8 u/L, the “ASPARTATE AMINOTRANSFERASE” value [3] was 78.2 u/L and the “BLOOD UREA NITROGEN” value [3] was 14.2 mg/dL. The CHOLESTEROL [3] was 44.9 mg/dL, the “CREATINE PHOSPHOKINASE” value [3] was 334.3 u/L and the CREATININE [3] was 0.6 mg/dL. For the same sequence, the GLUCOSE [3] was 147.2 mg/dL, the “LACTATE DEHYDROGENASE” value [3] was 123.1 u/L and the LIPASE [3] was 9.6 u/L. The PHOSPHORUS [3] was 10.01 mg/dL, the POTASSIUM [3] was 6.57 MEQ/L and the SODIUM [3] was 149.5 MEQ/L. The “TOTAL BILIRUBIN” value [3] was 0.21 mg/dL and the “TOTAL PROTEIN” value [3] was 6.66 G/DL.
